From patent publication US11192967B1, “Thermosetting polyimides derived from resveratrol” (The United States of America, as represented by the …, priority 2017, dated 2021)
Where two headings read alike, the source gives them in different places.

Key:
Aquatic toxicity = conditions: for Aquatic toxicity (in words): 1 and 2 compared to MDA
Protocol: (§1) Toxicity Testing. In vitro toxicity tests were conducted for compounds 1-3.

Mutagenicity (Ames test) = format: cell-based
Protocol: as §1

LD50 (toxicity testing) = conditions: listed among in vitro toxicity test results
In vitro cytotoxicity = format: cell-based; conditions: concentration at which cytotoxicity was observed; solubility limit 10 μg/mL for 3
Protocol: as §1

| SMILES | Aquatic Toxicity (Aquatic toxicity) | Mutagenicity (Ames test) (Mutagenicity (Ames test)) | LD50 (LD50 (toxicity testing)) | Aquatic toxicity (in words) (Aquatic toxicity) | Mutagenicity (Ames test) (Mutagenicity (Ames test); listed as Compound 3) | Cytotoxicity (In vitro cytotoxicity) | LD50 (LD50 (toxicity testing); read-out: LD50) |
| --- | --- | --- | --- | --- | --- | --- | --- |
| Nc1ccc(Cc2ccc(N)cc2)cc1 [MDA, Methylene dianiline, reference compound] | 14.30 mg/L | Mutagenic | 944 mg/kg | – | – | – | – |
| Nc1ccc(Oc2ccc(CCc3cc(Oc4ccc(N)cc4)cc(Oc4ccc(N)cc4)c3)cc2)cc1 [compound 3] | >2000 mg/L | Not mutagenic | – | remarkably low aquatic toxicity | not mutagenic | None observed | 568 mg/kg |
| Nc1ccc(/C=C/c2cc(N)cc(N)c2)cc1 [compound 1, (E)-5-(4-aminostyryl)benzene-1,3-diamine] | 1153 mg/L | Mutagenic | – | substantially reduced aquatic toxicity compared to MDA | – | >/=3.2 μg/mL | 301 mg/kg |
| Nc1ccc(CCc2cc(N)cc(N)c2)cc1 [compound 2] | 52.7 mg/L | Mutagenic | – | substantially reduced aquatic toxicity compared to MDA | – | >/=3.2 μg/mL | 820 mg/kg |
